Measured values published in patent publication US20260053834A1, “COVALENT MODIFIERS OF AKT1 AND USES THEREOF” (Terremoto Biosciences, Inc., priority 2023, published 2026).

Assays:
[1] = molecular target: T1, AKT2 (Homo sapiens, UniProt P31751); experiment: Live cell target engagement by NanoBRET competitive probe displacement, AKT2; assay type: binding; conditions: transfected HEK293 cells, 2 h at 37° C., read-out: AKT2 IC50: GeoMean IC50
T1 construct: expressed in transfected cells; host or cells: HEK293
T1 sequence (P31751 whole entry): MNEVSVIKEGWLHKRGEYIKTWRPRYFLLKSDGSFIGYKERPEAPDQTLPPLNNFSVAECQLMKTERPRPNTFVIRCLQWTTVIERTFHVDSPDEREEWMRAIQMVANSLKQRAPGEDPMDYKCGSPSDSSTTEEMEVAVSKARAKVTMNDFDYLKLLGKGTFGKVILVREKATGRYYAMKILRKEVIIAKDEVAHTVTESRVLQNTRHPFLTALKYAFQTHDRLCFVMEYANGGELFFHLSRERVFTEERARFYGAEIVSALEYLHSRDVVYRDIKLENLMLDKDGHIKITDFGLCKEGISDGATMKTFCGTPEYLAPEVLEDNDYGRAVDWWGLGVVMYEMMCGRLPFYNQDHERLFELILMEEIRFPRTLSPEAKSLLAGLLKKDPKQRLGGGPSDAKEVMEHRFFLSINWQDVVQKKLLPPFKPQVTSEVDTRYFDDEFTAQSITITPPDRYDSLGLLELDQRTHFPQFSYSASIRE

[2] = molecular target: T2, AKT1 E17K (Homo sapiens, UniProt P31749, E17K); experiment: Live cell target engagement by NanoBRET competitive probe displacement, AKT1 E17K; assay type: binding; conditions: transfected HEK293 cells, 2 h at 37° C., read-out: AKT1 E17K IC50: GeoMean IC50
T2 construct: expressed in transfected cells; host or cells: HEK293
T2 sequence (P31749 whole entry E17K): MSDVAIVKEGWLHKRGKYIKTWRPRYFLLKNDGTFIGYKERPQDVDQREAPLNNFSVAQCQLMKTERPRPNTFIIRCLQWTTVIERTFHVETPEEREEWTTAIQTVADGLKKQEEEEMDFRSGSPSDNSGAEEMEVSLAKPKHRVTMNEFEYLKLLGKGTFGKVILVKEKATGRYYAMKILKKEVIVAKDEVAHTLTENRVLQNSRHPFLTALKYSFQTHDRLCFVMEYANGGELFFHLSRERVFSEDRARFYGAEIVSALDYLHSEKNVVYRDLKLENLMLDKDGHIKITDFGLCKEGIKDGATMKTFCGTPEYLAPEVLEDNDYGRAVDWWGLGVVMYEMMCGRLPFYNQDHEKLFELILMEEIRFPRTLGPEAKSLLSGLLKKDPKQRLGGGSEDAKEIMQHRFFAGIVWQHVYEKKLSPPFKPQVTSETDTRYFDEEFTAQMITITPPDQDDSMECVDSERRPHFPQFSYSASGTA

[3] = system: LAPC4 prostate cancer cells, which express the AKT1 E17K allele; experiment: Antiproliferative effects in LAPC4 cells (CellTiter Glo, 72 h); assay type: cell-based; conditions: Homo sapiens, LAPC4, 72 h, read-out: LAPC4 proliferation IC50: GeoMean IC50
How it was run: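 Cells grown in IMDM with 12% FBS, seeded at 1,000 cells/well and treated with compound dilutions in DMSO for 72 h. Intracellular ATP read by luminescence. IC50 from a log(inhibitor) vs. response Hill fit.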

[4] = molecular target: T3, AKT1 WT (Homo sapiens, UniProt P31749); experiment: Live cell target engagement by NanoBRET competitive probe displacement, AKT1 WT; assay type: binding; conditions: transfected HEK293 cells, 2 h at 37° C., read-out: AKT1 WT IC50: GeoMean IC50
T3 construct: expressed in transfected cells; host or cells: HEK293
T3 sequence (P31749 whole entry): as the sequence (P31749 whole entry E17K) above, with K17E counted along it

Structure (SMILES) | IC50 [1] [nM] | IC50 [2] [nM] | IC50 [3] [nM] | IC50 [4] [nM]
Cc1cc(-c2ncco2)nc2c1nc(-c1cccnc1N)n2-c1ccc2c(c1)CC[C@@H]2NC(=O)c1ccc(O)c(C=O)c1 [Example 211, N-[(1S)-5-[2-(2-aminopyridin-3-yl)-7-methyl-5-(1,3-oxazol-2-yl)imidazo[4,5-b]pyridin-3-yl]-2,3-dihydro-1H-inden-1-yl]-3-formyl-4-hydroxybenzamide] | 100 to 2000 | < 10 | 10 to 100 | 10 to 100
Nc1ncccc1-c1nc2cc(F)c(-n3cccn3)nc2n1-c1ccc2c(c1)CC[C@@H]2NC(=O)c1ccc(O)c(C=O)c1 [Example 248, (S)—N-(5-(2-(2-aminopyridin-3-yl)-6-fluoro-5-(1H-pyrazol-1-yl)-3H-imidazo[4,5-b]pyridin-3-yl)-2,3-dihydro-1H-inden-1-yl)-3-formyl-4-hydroxybenzamide] | 100 to 2000 | 10 to 100 | 100 to 2000 | 10 to 100
Cn1ccnc1Nc1ccc(C(=O)N[C@H]2CCc3cc(-n4c(-c5cccnc5N)nc5ccc(-n6cccn6)nc54)ccc32)cc1C=O [Example 141, (S)—N-(5-(2-(2-aminopyridin-3-yl)-5-(1H-pyrazol-1-yl)-3H-imidazo[4,5-b]pyridin-3-yl)-2,3-dihydro-1H-inden-1-yl)-3-formyl-4-((1-methyl-1H-imidazol-2-yl)amino)benzamide] | 100 to 2000 | 100 to 2000 | 100 to 2000 | 10 to 100
CN(C)C(=O)Nc1ccc(C(=O)N[C@H]2CCc3cc(-n4c(-c5cccnc5N)nc5ccc(-n6ccc(F)n6)nc54)ccc32)cc1C=O [Example 122, N-[(1S)-5-[2-(2-aminopyridin-3-yl)-5-(3-fluoropyrazol-1-yl)imidazo[4,5-b]pyridin-3-yl]-2,3-dihydro-1H-inden-1-yl]-4-[(dimethylcarbamoyl)amino]-3-formylbenzamide] | 100 to 2000 | < 10 | 10 to 100 | 10 to 100
CS(=O)(=O)Nc1cc(-n2cccn2)nc2c1nc(-c1cccnc1N)n2-c1ccc2c(c1)CC[C@@H]2NC(=O)c1ccc(O)c(C=O)c1 [Example 232, N-[(1S)-5-[2-(2-aminopyridin-3-yl)-7-methanesulfonamido-5-(pyrazol-1-yl)imidazo[4,5-b]pyridin-3-yl]-2,3-dihydro-1H-inden-1-yl]-3-formyl-4-hydroxybenzamide] | ≥ 2000 | ≥ 2000 | ≥ 2000 | ≥ 2000
Nc1ncccc1-c1nc2ccc(-n3cccn3)nc2n1-c1ccc2c(c1)C1CC1C2NC(=O)c1ccc(O)c(C=O)c1 (centres unmarked) [Example 252, N-(3-(2-(2-aminopyridin-3-yl)-5-(1H-pyrazol-1-yl)-3H-imidazo[4,5-b]pyridin-3-yl)-1,1a,6,6a-tetrahydrocyclopropa[a]inden-6-yl)-3-formyl-4-hydroxybenzamide] | ≥ 2000 | 100 to 2000 | 100 to 2000 | 100 to 2000
Nc1ncccc1-c1nc2ccc(-n3nccn3)nc2n1-c1ccc2c(c1)CC[C@@H]2NC(=O)c1cc(F)c(O)c(C=O)c1 [Example 115, N-[(1S)-5-[2-(2-aminopyridin-3-yl)-5-(1,2,3-triazol-2-yl)imidazo[4,5-b]pyridin-3-yl]-2,3-dihydro-1H-inden-1-yl]-3-fluoro-5-formyl-4-hydroxybenzamide] | 100 to 2000 | 10 to 100 | 10 to 100 | 10 to 100
Nc1ncccc1-c1nc2ccc(-n3ncc4c3COC4)nc2n1-c1ccc2c(c1)CC[C@@H]2NC(=O)c1ccc(O)c(C=O)c1 [Example 206, N-[(1S)-5-[2-(2-aminopyridin-3-yl)-5-{4H,6H-furo[3,4-c]pyrazol-1-yl}imidazo[4,5-b]pyridin-3-yl]-2,3-dihydro-1H-inden-1-yl]-3-formyl-4-hydroxybenzamide] | 100 to 2000 | < 10 | 10 to 100 | 10 to 100
Nc1ncccc1-c1nc2ccc(-c3ncc(C(F)F)s3)nc2n1-c1ccc2c(c1)CC[C@@H]2NC(=O)c1ccc(O)c(C=O)c1 [Example 146, (S)—N-(5-(2-(2-aminopyridin-3-yl)-5-(5-(difluoromethyl)thiazol-2-yl)-3H-imidazo[4,5-b]pyridin-3-yl)-2,3-dihydro-1H-inden-1-yl)-3-formyl-4-hydroxybenzamide] | 100 to 2000 | 10 to 100 | 100 to 2000 | 100 to 2000
Nc1ncccc1-c1nc2ccc(-c3cccnn3)nc2n1-c1ccc2c(c1)CC[C@@H]2NC(=O)c1ccc(O)c(C=O)c1 [Example 18, N-[(1S)-5-[2-(2-aminopyridin-3-yl)-5-(pyridazin-3-yl)imidazo[4,5-b]pyridin-3-yl]-2,3-dihydro-1H-inden-1-yl]-3-formyl-4-hydroxybenzamide] | 100 to 2000 | 10 to 100 | 100 to 2000 | 10 to 100
Nc1ncccc1-c1nc2ccc(-n3cccn3)nc2n1-c1ccc2c(c1)CC[C@@H]2NC(=O)c1csc(C=O)n1 [Example 143, (S)—N-(5-(2-(2-aminopyridin-3-yl)-5-(1H-pyrazol-1-yl)-3H-imidazo[4,5-b]pyridin-3-yl)-2,3-dihydro-1H-inden-1-yl)-2-formylthiazole-4-carboxamide] | 100 to 2000 | 100 to 2000 | 100 to 2000 | 100 to 2000
CC(=O)Nc1ccc(C(=O)N[C@H]2CCc3cc(-n4c(-c5cccnc5N)nc5ccc(N6CCOCC6)nc54)ccc32)cc1C=O [Example 53, N-[(1S)-5-[2-(2-aminopyridin-3-yl)-5-(morpholin-4-yl)imidazo[4,5-b]pyridin-3-yl]-2,3-dihydro-1H-inden-1-yl]-4-acetamido-3-formylbenzamide] | 100 to 2000 | < 10 | 100 to 2000 | 10 to 100

Other lines, results leading:

IC50 [1] [nM] | IC50 [2] [nM] | IC50 [3] [nM] | IC50 [4] [nM] | Structure (SMILES)
100 to 2000 | 10 to 100 | 10 to 100 | 10 to 100 | Nc1ncccc1-c1nc2ccc(-c3cncnc3)nc2n1-c1ccc2c(c1)CC[C@@H]2NC(=O)c1ccc(O)c(C=O)c1 [Example 58, N-[(1S)-5-[2-(2-aminopyridin-3-yl)-5-(pyrimidin-5-yl)imidazo[4,5-b]pyridin-3-yl]-2,3-dihydro-1H-inden-1-yl]-3-formyl-4-hydroxybenzamide]
100 to 2000 | 10 to 100 | 10 to 100 | 10 to 100 | CN(C)c1ccn(-c2ccc3nc(-c4cccnc4N)n(-c4ccc5c(c4)CC[C@@H]5NC(=O)c4ccc(O)c(C=O)c4)c3n2)n1 [Example 114, (S)—N-(5-(2-(2-aminopyridin-3-yl)-5-(3-(dimethylamino)-1H-pyrazol-1-yl)-3H-imidazo[4,5-b]pyridin-3-yl)-2,3-dihydro-1H-inden-1-yl)-3-formyl-4-hydroxybenzamide]
100 to 2000 | 10 to 100 | 100 to 2000 | 100 to 2000 | CN1CCN(c2cc(-n3cccn3)nc3c2nc(-c2cccnc2N)n3-c2ccc3c(c2)CC[C@@H]3NC(=O)c2ccc(O)c(C=O)c2)CC1 [Example 223, N-[(1S)-5-[2-(2-aminopyridin-3-yl)-7-(4-methylpiperazin-1-yl)-5-(pyrazol-1-yl)imidazo[4,5-b]pyridin-3-yl]-2,3-dihydro-1H-inden-1-yl]-3-formyl-4-hydroxybenzamide]
100 to 2000 | 10 to 100 | 10 to 100 | 10 to 100 | Cc1cc(-n2nccn2)nc2c1nc(-c1cccnc1N)n2-c1ccc2c(c1)CC[C@@H]2NC(=O)c1ccc(O)c(C=O)c1 [Example 234, N-[(1S)-5-[2-(2-aminopyridin-3-yl)-7-methyl-5-(1,2,3-triazol-2-yl)imidazo[4,5-b]pyridin-3-yl]-2,3-dihydro-1H-inden-1-yl]-3-formyl-4-hydroxybenzamide]
100 to 2000 | 10 to 100 | 100 to 2000 | 10 to 100 | Nc1ncccc1-c1nc2ccc(-c3ccccc3)nc2n1-c1ccc2c(c1)CC[C@@H]2NC(=O)c1ccc(B(O)O)c(C=O)c1 [Example 161, (S)-(4-((5-(2-(2-aminopyridin-3-yl)-5-phenyl-3H-imidazo[4,5-b]pyridin-3-yl)-2,3-dihydro-1H-inden-1-yl)carbamoyl)-2-formylphenyl)boronic acid]
100 to 2000 | 10 to 100 | 100 to 2000 | 10 to 100 | [2H]C(=O)c1cc(C(=O)N[C@H]2CCc3cc(-n4c(-c5cccnc5N)nc5c(C)cc(-n6cccn6)nc54)ccc32)ccc1O [Example 183, (S)—N-(5-(2-(2-aminopyridin-3-yl)-7-methyl-5-(1H-pyrazol-1-yl)-3H-imidazo[4,5-b]pyridin-3-yl)-2,3-dihydro-1H-inden-1-yl)-3-(formyl-d)-4-hydroxybenzamide]
10 to 100 | 10 to 100 | 10 to 100 | 10 to 100 | Cc1cc(-c2nccs2)nc2c1nc(-c1cccnc1N)n2-c1ccc2c(c1)CC[C@@H]2NC(=O)c1ccc(O)c(C=O)c1 [Example 180, N-[(1S)-5-[2-(2-aminopyridin-3-yl)-7-methyl-5-(1,3-thiazol-2-yl)imidazo[4,5-b]pyridin-3-yl]-2,3-dihydro-1H-inden-1-yl]-3-formyl-4-hydroxybenzamide]
10 to 100 | 10 to 100 | 10 to 100 | 10 to 100 | Nc1ncccc1-c1nc2ccc(-c3ncc(F)s3)nc2n1-c1ccc2c(c1)CC[C@@H]2NC(=O)c1cc(C=O)c(O)c(F)c1F [Example 193, N-[(1S)-5-[2-(2-aminopyridin-3-yl)-5-(5-fluoro-1,3-thiazol-2-yl)imidazo[4,5-b]pyridin-3-yl]-2,3-dihydro-1H-inden-1-yl]-2,3-difluoro-5-formyl-4-hydroxybenzamide]
